These results are taken from patent publication US20250034135A1, “ANTI-APOPTOTIC PROTEIN BCL-2 INHIBITOR, PHARMACEUTICAL COMPOSITION AND USES THEREOF” (HANGZHOU HEALZEN THERAPEUTICS CO., LTD., priority 2021, published 2025).

Bounds are passed on as bounds.

BCL2, sequence (P10415 whole entry): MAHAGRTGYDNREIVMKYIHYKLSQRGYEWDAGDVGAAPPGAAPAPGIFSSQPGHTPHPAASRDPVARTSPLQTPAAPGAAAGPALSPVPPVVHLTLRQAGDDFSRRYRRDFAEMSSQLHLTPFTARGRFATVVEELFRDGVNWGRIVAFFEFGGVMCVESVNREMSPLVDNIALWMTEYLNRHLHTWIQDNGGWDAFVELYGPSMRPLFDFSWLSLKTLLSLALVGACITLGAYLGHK

This assay has as its target BCL2 (Homo sapiens (Human), UniProt P10415). In words: Molecular level activity test of anti-apoptotic protein BCL2 (HTRF, binding to Bim peptide). The note with it: HTRF, binding of BCL2 to Bim peptide; read-out: BCL2 nM (inhibitory activity, IC50). The method in brief:
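HTRF binding of His-tagged recombinant BCL2 to biotin-tagged Bim peptide, compound in 2% DMSO. After 1 h reaction, anti-His and streptavidin-XL665 detection reagents were added and incubated 4 h at room temperature before reading.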
For `COc1cc(CN2CCN(C3CC4(CCN(c5ccc(C(=O)NS(=O)(=O)c6cc([N+](=O)[O-])c(NCC7(F)CCOCC7)c7c6OCO7)c(Oc6cnc7[nH]ccc7c6)c5)CC4)C3)[C@H](c3ccccc3C(C)C)C2)cc2cc(C)oc12` [compound 171, (R)-2-((1H-pyrrolo[2,3-b]pyrid-5-yl)oxy)-N-((7-(((4-fluorotetrahydro-2H-pyran-4-yl)methyl)amino)-6-nitrobenzo[d][1,3]dioxocyclopent-4-yl)sulfonyl)-4-(2-(2-(2-isopropylphenyl)-4-((7-methoxy-2-methylbenzofuran-5-yl)methyl)piperazin-1-yl)-7-azaspiro[3.5]non-7-yl)benzamide], the IC50 was less than 10 nM.

Regarding `CC(C)c1ccccc1[C@@H]1CN(Cc2ccc(C3CC3)cc2)CCN1C1CC2(CCN(c3ccc(C(=O)NS(=O)(=O)c4cc([N+](=O)[O-])c(NCC5(F)CCOCC5)c5c4OCO5)c(Oc4cnc5[nH]ccc5c4)c3)CC2)C1` [compound 172, (R)-2-((1H-pyrrolo[2,3-b]pyrid-5-yl)oxy)-4-(2-(4-(4-cyclopropylbenzyl)-2-(2-isopropylphenyl)piperazin-1-yl)-7-azaspiro[3.5]non-7-yl)-N-((7-(((4-fluorotetrahydro-2H-pyran-4-yl)methyl)amino)-6-nitrobenzo[d][1,3]dioxocyclopent-4-yl)sulfonyl)benzamide], the IC50 was less than 10 nM.

Turning to `COc1cc(CN2CCN(C3CC4(CCN(c5ccc(C(=O)NS(=O)(=O)c6cc([N+](=O)[O-])c(NCC7(F)CCOCC7)c7c6OCO7)c(Oc6cnc7[nH]ccc7c6)c5)CC4)C3)[C@H](c3ccccc3C(C)C)C2)ccc1C1CC1` [compound 173, (R)-2-((1H-pyrrolo[2,3-b]pyrid-5-yl)oxy)-4-(2-(4-(4-cyclopropyl-3-methoxybenzyl)-2-(2-isopropylphenyl)piperazin-1-yl)-7-azaspiro[3.5]non-7-yl)-N-((7-(((4-fluorotetrahydro-2H-pyran-4-yl)methyl)amino)-6-nitrobenzo[d][1,3]dioxocyclopent-4-yl)sulfonyl)benzamide], the IC50 is less than 10 nM. The same measure for `COc1ccc(CN2CCN(C3CC4(CCN(c5ccc(C(=O)NS(=O)(=O)c6cc([N+](=O)[O-])c(NC[C@H]7CC[C@](C)(O)CC7)c7c6OCO7)c(Oc6cnc7[nH]ccc7c6)c5)CC4)C3)[C@H](c3ccccc3C(C)C)C2)cn1` [compound 174, 2-((1H-pyrrolo[2,3-b]pyrid-5-yl)oxy)-N-((7-((((1r, 4r)-4-hydroxy-4-methylcyclohexyl)methyl)amino)-6-nitrobenzo[d][1,3]dioxocyclopent-4-yl)sulfonyl)-4-(2-((R)-2-(2-isopropylphenyl)-4-((6-methoxypyrid-3-yl)methyl)piperazin-1-yl)-7-azaspiro[3.5]non-7-yl)benzamide]: less than 10 nM; for `CC(C)c1ccccc1[C@@H]1CN(Cc2ccc(F)c(F)c2)CCN1C1CC2(CCN(c3ccc(C(=O)NS(=O)(=O)c4cc([N+](=O)[O-])c(NC[C@H]5CC[C@](C)(O)CC5)c5c4OCO5)c(Oc4cnc5[nH]ccc5c4)c3)CC2)C1` [compound 176, 2-((1H-pyrrolo[2,3-b]pyrid-5-yl)oxy)-4-(2-((R)-4-(3,4-difluorobenzyl)-2-(2-isopropylphenyl)piperazin-1-yl)-7-azaspiro[3.5]non-7-yl)-N-((7-((((1r, 4r)-4-hydroxy-4-methylcyclohexyl)methyl)amino)-6-nitrobenzo[d][1,3]dioxocyclopent-4-yl)sulfonyl)benzamide]: less than 10 nM; for `CC(C)c1ccccc1[C@@H]1CN(Cc2c(F)cccc2F)CCN1C1CC2(CCN(c3ccc(C(=O)NS(=O)(=O)c4cc([N+](=O)[O-])c(NC[C@H]5CC[C@](C)(O)CC5)c5c4OCO5)c(Oc4cnc5[nH]ccc5c4)c3)CC2)C1` [compound 177, 2-((1H-pyrrolo[2,3-b]pyrid-5-yl)oxy)-4-(2-((R)-4-(2,6-difluorobenzyl)-2-(2-isopropylphenyl)piperazin-1-yl)-7-azaspiro[3.5]non-7-yl)-N-((7-((((1r, 4r)-4-hydroxy-4-methylcyclohexyl)methyl)amino)-6-nitrobenzo[d][1,3]dioxocyclopent-4-yl)sulfonyl)benzamide]: less than 10 nM.

A word on the IC50: it is the midpoint of a concentration-inhibition curve.
